From PMC9482658, “Mechanistic understanding of human SLFN11” (Nature Communications, 2022) come the findings set out here.

Series [1] deals with T1, SLFN5 (Homo sapiens, UniProt Q08AF3).
T1 construct: recombinant
T1 sequence (Q08AF3 1-891): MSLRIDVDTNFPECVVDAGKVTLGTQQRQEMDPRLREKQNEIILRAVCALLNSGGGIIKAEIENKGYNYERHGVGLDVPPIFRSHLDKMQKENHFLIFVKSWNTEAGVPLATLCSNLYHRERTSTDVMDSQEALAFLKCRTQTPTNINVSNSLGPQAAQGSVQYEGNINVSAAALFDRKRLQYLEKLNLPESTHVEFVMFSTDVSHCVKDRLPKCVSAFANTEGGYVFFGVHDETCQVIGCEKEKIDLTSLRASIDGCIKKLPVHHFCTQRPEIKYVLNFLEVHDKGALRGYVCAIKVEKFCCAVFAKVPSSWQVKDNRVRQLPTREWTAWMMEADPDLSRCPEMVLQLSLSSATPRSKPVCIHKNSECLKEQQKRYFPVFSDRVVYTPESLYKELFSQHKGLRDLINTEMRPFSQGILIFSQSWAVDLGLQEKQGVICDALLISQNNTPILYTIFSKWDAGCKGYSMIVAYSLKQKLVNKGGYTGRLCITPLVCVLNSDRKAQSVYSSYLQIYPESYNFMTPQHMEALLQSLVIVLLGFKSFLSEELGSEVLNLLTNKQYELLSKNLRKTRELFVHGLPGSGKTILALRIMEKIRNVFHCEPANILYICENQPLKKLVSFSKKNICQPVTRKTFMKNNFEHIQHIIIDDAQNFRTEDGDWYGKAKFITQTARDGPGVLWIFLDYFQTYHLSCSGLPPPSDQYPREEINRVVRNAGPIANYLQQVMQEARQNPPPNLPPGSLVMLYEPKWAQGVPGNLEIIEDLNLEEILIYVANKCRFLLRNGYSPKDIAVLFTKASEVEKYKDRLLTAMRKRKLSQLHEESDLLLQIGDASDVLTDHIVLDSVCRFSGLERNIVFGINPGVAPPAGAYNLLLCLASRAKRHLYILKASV
The series is described as follows: nanoDSF thermal unfolding (Tycho NT.[…]). The note with it: 1 mM nucleotide, 300 nM protein; 25 mM Tris pH 7.5, 60 mM NaCl, 2 mM MgCl2, 1 mM DTT. The class given is binding. A general note: In DSF a fluorescence change marks the thermal transition of the protein.

Series [2] concerns the molecule itself. Nature of the series: cryo-EM structure; SLFN11^E209A at 5 uM; 50 mM glycine pH 9, 200 mM NaCl, 2 mM MgCl2, 1 mM DTT; dimer reconstructed in C2 symmetry; monomer reconstructed from another dataset.
Series [3] concerns the molecule itself. Nature of the series: mass photometry; 50 nM SLFN11 in 25 mM Tris pH 7.5, 2 mM MgCl2, 1 mM DTT with variable concentrations of NaCl; 100 or 300 nM 60 nt ssDNA added in the stabilisation experiment; monomer-dimer equilibrium.

`Nc1ncnc2c1ncn2[C@@H]1O[C@H](COP(=O)(O)OP(=O)(O)OP(=O)(O)O)[C@@H](O)[C@H]1O` [ATP]: in series [1], the unfolding temperature increase result was “SLFN5 shows a significant increase in unfolding temperature in presence of ATP and ATPγS”.

`Nc1ncnc2c1ncn2[C@@H]1O[C@H](COP(=O)(O)OP(=O)(O)OP(O)(O)=S)[C@@H](O)[C@H]1O` [ATPγS]: the unfolding temperature increase result in series [1] was “SLFN5 shows a significant increase in unfolding temperature in presence of ATP and ATPγS”.

B1: full-length human SLFN11 E209A (enzyme, UniProt Q7Z7L1 1-901, looked up)
chain: MEANQCPLVVEPSYPDLVINVGEVTLGEENRKKLQKIQRDQEKERVMRAACALLNSGGGVIRMAKKVEHPVEMGLDLEQSLRELIQSSDLQAFFETKQQGRCFYIFVKSWSSGPFPEDRSVKPRLCSLSSSLYRRSETSVRSMDSREAFCFLKTKRKPKILEEGPFHKIHKGVYQELPNSDPADPNSDPADLIFQKDYLEYGEILPFPASQLVEFKQFSTKHFQEYVKRTIPEYVPAFANTGGGYLFIGVDDKSREVLGCAKENVDPDSLRRKIEQAIYKLPCVHFCQPQRPITFTLKIVNVLKRGELYGYACMIRVNPFCCAVFSEAPNSWIVEDKYVCSLTTEKWVGMMTDTDPDLLQLSEDFECQLSLSSGPPLSRPVYSKKGLEHKKELQQLLFSVPPGYLRYTPESLWRDLISEHRGLEELINKQMQPFFRGILIFSRSWAVDLNLQEKPGVICDALLIAQNSTPILYTILREQDAEGQDYCTRTAFTLKQKLVNMGGYTGKVCVRAKVLCLSPESSAEALEAAVSPMDYPASYSLAGTQHMEALLQSLVIVLLGFRSLLSDQLGCEVLNLLTAQQYEIFSRSLRKNRELFVHGLPGSGKTIMAMKIMEKIRNVFHCEAHRILYVCENQPLRNFISDRNICRAETRKTFLRENFEHIQHIVIDEAQNFRTEDGDWYGKAKSITRRAKGGPGILWIFLDYFQTSHLDCSGLPPLSDQYPREELTRIVRNADPIAKYLQKEMQVIRSNPSFNIPTGCLEVFPEAEWSQGVQGTLRIKKYLTVEQIMTCVADTCRRFFDRGYSPKDVAVLVSTAKEVEHYKYELLKAMRKKRVVQLSDACDMLGDHIVLDSVRRFSGLERSIVFGIHPRTADPAILPNVLICLASRAKQHLYIFPWGGH
notes: Schlafen 11 (SLFN11), human, full length, nuclease active site mutant E209A; Made by site-directed mutagenesis of the wild-type construct; source: Trichoplusia ni High Five insect cells, expressed and purified as the wild-type protein
In the case of B1, the binding result in series [2] was “binds”.

B2: full-length human SLFN11 (Schlafen 11), wild type (enzyme, UniProt Q7Z7L1 1-901, looked up)
chain: MEANQCPLVVEPSYPDLVINVGEVTLGEENRKKLQKIQRDQEKERVMRAACALLNSGGGVIRMAKKVEHPVEMGLDLEQSLRELIQSSDLQAFFETKQQGRCFYIFVKSWSSGPFPEDRSVKPRLCSLSSSLYRRSETSVRSMDSREAFCFLKTKRKPKILEEGPFHKIHKGVYQELPNSDPADPNSDPADLIFQKDYLEYGEILPFPESQLVEFKQFSTKHFQEYVKRTIPEYVPAFANTGGGYLFIGVDDKSREVLGCAKENVDPDSLRRKIEQAIYKLPCVHFCQPQRPITFTLKIVNVLKRGELYGYACMIRVNPFCCAVFSEAPNSWIVEDKYVCSLTTEKWVGMMTDTDPDLLQLSEDFECQLSLSSGPPLSRPVYSKKGLEHKKELQQLLFSVPPGYLRYTPESLWRDLISEHRGLEELINKQMQPFFRGILIFSRSWAVDLNLQEKPGVICDALLIAQNSTPILYTILREQDAEGQDYCTRTAFTLKQKLVNMGGYTGKVCVRAKVLCLSPESSAEALEAAVSPMDYPASYSLAGTQHMEALLQSLVIVLLGFRSLLSDQLGCEVLNLLTAQQYEIFSRSLRKNRELFVHGLPGSGKTIMAMKIMEKIRNVFHCEAHRILYVCENQPLRNFISDRNICRAETRKTFLRENFEHIQHIVIDEAQNFRTEDGDWYGKAKSITRRAKGGPGILWIFLDYFQTSHLDCSGLPPLSDQYPREELTRIVRNADPIAKYLQKEMQVIRSNPSFNIPTGCLEVFPEAEWSQGVQGTLRIKKYLTVEQIMTCVADTCRRFFDRGYSPKDVAVLVSTAKEVEHYKYELLKAMRKKRVVQLSDACDMLGDHIVLDSVRRFSGLERSIVFGIHPRTADPAILPNVLICLASRAKQHLYIFPWGGH
notes: Schlafen 11 (SLFN11), human, full length; domains: Slfn core 1-353, linker 354-576, helicase 577-901; residues 7-899 built in the model; The construct has an HRV 3C cleavage site after the N-terminal double FLAG tag; The protein was eluted with Flag peptide and no cleavage is described; It is in a monomer-dimer equilibrium in solution; also called SLFN11^wt; source: SEC for cryo-EM samples
Regarding B2, in series [3], the “stoichiometry N” value was 2.

For orientation: stoichiometry N means the number of molecules, sites or subunits per partner or assembly.
